Columns and labels:
wheat [1] = assay: Test C pre-/postemergence test; format: in vivo, Triticum aestivum; details: for Plant response rating, Wheat: 31 g ai/ha, scale 0 to 100 (0 no effect, 100 complete control)
Summary of the method: (§1)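 Test chemicals were formulated with surfactant in a non-phytotoxic solvent and sprayed both on freshly planted seeds (preemergence) and on 1- to 4-leaf plants of 2–18 cm (postemergence). Flooded-paddy pots received compound directly into 3 cm of standing water, maintained for the test.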

lambsquarters = assay: Test C pre-/postemergence test; format: in vivo, Chenopodium album; details: for Plant response rating, Lambsquarters: 31 g ai/ha, scale 0 to 100 (0 no effect, 100 complete control)
Summary of the method: as §1

pigweed = assay: Test C pre-/postemergence test; format: in vivo, Amaranthus retroflexus; details: for Plant response rating, Pigweed: 31 g ai/ha, scale 0 to 100 (0 no effect, 100 complete control)
Summary of the method: as §1

bermudagrass = assay: Test C pre-/postemergence test; format: in vivo, Cynodon dactylon; details: for Plant response rating, Bermudagrass: 31 g ai/ha
Summary of the method: as §1

Surinam grass = assay: Test C pre-/postemergence test; format: in vivo, Brachiaria decumbens; details: for Plant response rating, Surinam Grass: 31 g ai/ha, scale 0 to 100 (0 no effect, 100 complete control)
Summary of the method: as §1

Goosegrass = assay: Test C pre-/postemergence test; format: in vivo, Eleusin indica; details: for Plant response rating, Goosegrass: 31 g ai/ha, scale 0 to 100 (0 no effect, 100 complete control)
Summary of the method: as §1

[2] = tested on: common (oilseed) sunflower; assay: Test C pre-/postemergence test; format: in vivo, Helianthus annuus; details: for Plant response rating, Sunflower: 31 g ai/ha, scale 0 to 100 (0 no effect, 100 complete control)
Summary of the method: as §1

umbrella sedge = assay: Test C flooded paddy test; format: in vivo, Cyperus difformis; details: Flood
Summary of the method: (§2)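 Flooded 3 cm over soil; compound into paddy water; depth kept constant. Greenhouse 13–15 d.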

barnyardgrass = assay: Test A pre-/postemergence greenhouse test; format: in vivo, Echinochloa crus-galli; details: for Plant response rating, Barnyardgrass: 0 to 100 scale where 0 is no effect and 100 is complete control; for Barnyardgrass plant response rating: 0 to 100 scale
Summary of the method: (§3)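 Planting was into mixed loam soil and sand; preemergence treatment followed as a directed soil spray. Concurrently, emerged plants (one- to two-leaf, 2–10 cm) received postemergence applications of identically formulated compound (non-phytotoxic solvent, surfactant). After approximately ten days under greenhouse conditions, injury was judged by eye against untreated plants.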

rice = assay: Test C flooded paddy test; format: in vivo, Oryza sativa; details: Flood
Summary of the method: as §2

morningglory = assay: Test A pre-/postemergence greenhouse test; format: in vivo, Ipomoea spp.; details: for Plant response rating, Morningglory: 0 to 100 scale where 0 is no effect and 100 is complete control; for Morningglory plant response rating: 0 to 100 scale
Summary of the method: as §3

redroot pigweed = assay: Test A pre-/postemergence greenhouse test; format: in vivo, Amaranthus retroflexus; details: for Plant response rating, Pigweed: 0 to 100 scale where 0 is no effect and 100 is complete control; for Pigweed plant response rating: 0 to 100 scale
Summary of the method: as §3

crabgrass = assay: Test C pre-/postemergence test; format: in vivo, Digitaria sanguinalis; details: for Plant response rating, Crabgrass, Large: 31 g ai/ha, scale 0 to 100 (0 no effect, 100 complete control)
Summary of the method: as §1

wheat [3] = assay: Test A pre-/postemergence greenhouse test; format: in vivo, Triticum aestivum; details: for Plant response rating, Wheat: 0 to 100 scale where 0 is no effect and 100 is complete control; for Wheat plant response rating: 0 to 100 scale
Summary of the method: as §3

eastern black nightshade = assay: Test C pre-/postemergence test; format: in vivo, Solanum ptycanthum; details: for Plant response rating, Nightshade: 31 g ai/ha, scale 0 to 100 (0 no effect, 100 complete control)
Summary of the method: as §1

giant foxtail = assay: Test A pre-/postemergence greenhouse test; format: in vivo, Setaria faberi; details: for Plant response rating, Foxtail, Giant: 0 to 100 scale where 0 is no effect and 100 is complete control; for Foxtail, Giant plant response rating: 0 to 100 scale
Summary of the method: as §3

corn = assay: Test A pre-/postemergence greenhouse test; format: in vivo, Zea mays; details: for Plant response rating, Corn: 0 to 100 scale where 0 is no effect and 100 is complete control; for Corn plant response rating: 0 to 100 scale
Summary of the method: as §3

[4] = 62 g ai/ha, Preemergence, scale 0 to 100
[5] = 125 g ai/ha, preemergence, scale 0 (no effect) to 100 (complete control)
[6] = preemergence, 250 g ai/ha, scale 0 (no effect) to 100 (complete control)
[7] = 62 g ai/ha, Preemergence, scale 0 to 100 (0 no effect, 100 complete control)
[8] = Preemergence, scale 0 to 100 (0 no effect, 100 complete control)
[9] = 62 g ai/ha, scale 0 to 100 (0 no effect, 100 complete control)
[10] = 250 g ai/ha, scale 0 to 100, 0 no effect, 100 complete control, 13 to 15 days
[11] = Postemergence, 500 g ai/ha, 0 is no effect, 100 is complete control
[12] = Preemergence, 125 g ai/ha, 0 no effect, 100 complete control

Cn1nc(C(F)(F)F)c(C[S+]([O-])c2cccc[n+]2[O-])c1OCC(F)F (stereo not drawn) [Compound 75]
Wheat plant response rating (wheat [1]; [4]): 30 | Wheat plant response rating (wheat [1]; [5]): 60 | Plant response rating, Wheat (wheat [1]; Preemergence): 0 | Wheat plant response rating (wheat [1]; [6]): 95 | Lambsquarters plant response rating (lambsquarters; [4]): 100 | Lambsquarters plant response rating (lambsquarters; [5]): 100 | Plant response rating, Lambsquarters (lambsquarters; Preemergence): 100 | Lambsquarters plant response rating (lambsquarters; [6]): 100 | Pigweed plant response rating (pigweed; [4]): 100 | Pigweed plant response rating (pigweed; [5]): 100 | Plant response rating, Pigweed (pigweed; Preemergence): 100 | Pigweed plant response rating (pigweed; [6]): 100 | Bermudagrass plant response rating (bermudagrass; [7]): 100 | Bermudagrass plant response rating (bermudagrass; [5]): 100 | Plant response rating, Bermudagrass (bermudagrass; [8]): 100 | Bermudagrass plant response rating (bermudagrass; [6]): 100 | Surinam Grass plant response rating (Surinam grass; [4]): 100 | Surinam Grass plant response rating (Surinam grass; [5]): 100 | Plant response rating, Surinam Grass (Surinam grass; Preemergence): 60 | Surinam Grass plant response rating (Surinam grass; [6]): 100 | Goosegrass plant response rating (Goosegrass; [4]): 85 | Goosegrass plant response rating (Goosegrass; [5]): 100 | Plant response rating, Goosegrass (Goosegrass; Preemergence): 80 | Goosegrass plant response rating (Goosegrass; [6]): 100 | Sunflower plant response rating [2, 4]: 50 | Sunflower plant response rating [2, 5]: 100 | Plant response rating, Sunflower ([2]; Preemergence): 0 | Sunflower plant response rating [2, 6]: 100 | Plant response rating, Sedge, Umbrella (umbrella sedge; [9]): 50 | Plant response rating, Sedge, Umbrella (umbrella sedge; [10]): 85 | Plant response rating, Barnyardgrass (barnyardgrass; Postemergence, 125 g ai/ha): 60 | Barnyardgrass plant response rating (barnyardgrass; [11]): 80 | Barnyardgrass plant response rating (barnyardgrass; [12]): 80 | Plant response rating, Barnyardgrass (barnyardgrass; Preemergence, 500 g ai/ha): 100 | Plant response rating, Rice (rice; [9]): 0 | Plant response rating, Rice (rice; [10]): 60 | Plant response rating, Morningglory (morningglory; Postemergence, 125 g ai/ha): 40 | Morningglory plant response rating (morningglory; [11]): 90 | Morningglory plant response rating (morningglory; [12]): 40 | Plant response rating, Morningglory (morningglory; Preemergence, 500 g ai/ha): 90 | Plant response rating, Pigweed (redroot pigweed; Postemergence, 125 g ai/ha): 70 | Pigweed plant response rating (redroot pigweed; [11]): 100 | Pigweed plant response rating (redroot pigweed; [12]): 80 | Plant response rating, Pigweed (redroot pigweed; Preemergence, 500 g ai/ha): 100 | Crabgrass, Large plant response rating (crabgrass; [4]): 85 | Crabgrass, Large plant response rating (crabgrass; [5]): 100 | Plant response rating, Crabgrass, Large (crabgrass; Preemergence): 40 | Crabgrass, Large plant response rating (crabgrass; [6]): 100 | Plant response rating, Wheat (wheat [3]; Postemergence, 125 g ai/ha): 50 | Wheat plant response rating (wheat [3]; [11]): 70 | Wheat plant response rating (wheat [3]; [12]): 70 | Plant response rating, Wheat (wheat [3]; Preemergence, 500 g ai/ha): 100 | Nightshade plant response rating (eastern black nightshade; [4]): 98 | Nightshade plant response rating (eastern black nightshade; [5]): 100 | Plant response rating, Nightshade (eastern black nightshade; Preemergence): 0 | Nightshade plant response rating (eastern black nightshade; [6]): 100 | Plant response rating, Foxtail, Giant (giant foxtail; Postemergence, 125 g ai/ha): 80 | Foxtail, Giant plant response rating (giant foxtail; [11]): 90 | Foxtail, Giant plant response rating (giant foxtail; [12]): 90 | Plant response rating, Foxtail, Giant (giant foxtail; Preemergence, 500 g ai/ha): 100 | Plant response rating, Corn (corn; Postemergence, 125 g ai/ha): 50 | Corn plant response rating (corn; [11]): 70 | Corn plant response rating (corn; [12]): 0 | Plant response rating, Corn (corn; Preemergence, 500 g ai/ha): 70

CC(c1c(C(F)(F)F)nn(CC(F)(F)F)c1Cl)[S+]([O-])c1cccc[n+]1[O-] (stereo not drawn) [Compound 46]
Wheat plant response rating (wheat [1]; [4]): 100 | Wheat plant response rating (wheat [1]; [5]): 100 | Plant response rating, Wheat (wheat [1]; Preemergence): 100 | Wheat plant response rating (wheat [1]; [6]): 100 | Lambsquarters plant response rating (lambsquarters; [4]): 90 | Lambsquarters plant response rating (lambsquarters; [5]): 100 | Plant response rating, Lambsquarters (lambsquarters; Preemergence): 0 | Lambsquarters plant response rating (lambsquarters; [6]): 100 | Pigweed plant response rating (pigweed; [4]): 90 | Pigweed plant response rating (pigweed; [5]): 100 | Plant response rating, Pigweed (pigweed; Preemergence): 0 | Pigweed plant response rating (pigweed; [6]): 100 | Bermudagrass plant response rating (bermudagrass; [7]): 100 | Bermudagrass plant response rating (bermudagrass; [5]): 100 | Plant response rating, Bermudagrass (bermudagrass; [8]): 100 | Bermudagrass plant response rating (bermudagrass; [6]): 100 | Surinam Grass plant response rating (Surinam grass; [4]): 85 | Surinam Grass plant response rating (Surinam grass; [5]): 100 | Plant response rating, Surinam Grass (Surinam grass; Preemergence): 85 | Surinam Grass plant response rating (Surinam grass; [6]): 100 | Goosegrass plant response rating (Goosegrass; [4]): 100 | Goosegrass plant response rating (Goosegrass; [5]): 100 | Plant response rating, Goosegrass (Goosegrass; Preemergence): 98 | Goosegrass plant response rating (Goosegrass; [6]): 100 | Sunflower plant response rating [2, 4]: 0 | Sunflower plant response rating [2, 5]: 0 | Plant response rating, Sunflower ([2]; Preemergence): 0 | Sunflower plant response rating [2, 6]: 40 | Plant response rating, Sedge, Umbrella (umbrella sedge; [10]): 70 | Plant response rating, Barnyardgrass (barnyardgrass; Postemergence, 125 g ai/ha): 70 | Barnyardgrass plant response rating (barnyardgrass; [11]): 80 | Barnyardgrass plant response rating (barnyardgrass; [12]): 80 | Plant response rating, Barnyardgrass (barnyardgrass; Preemergence, 500 g ai/ha): 100 | Plant response rating, Rice (rice; 62 g ai/ha, scale 0 to 100, 0 no effect, 100 complete control, 13 to 15 days): 10 | Plant response rating, Rice (rice; [10]): 55 | Plant response rating, Morningglory (morningglory; Postemergence, 125 g ai/ha): 0 | Morningglory plant response rating (morningglory; [11]): 60 | Morningglory plant response rating (morningglory; [12]): 30 | Plant response rating, Morningglory (morningglory; Preemergence, 500 g ai/ha): 90 | Plant response rating, Pigweed (redroot pigweed; Postemergence, 125 g ai/ha): 40 | Pigweed plant response rating (redroot pigweed; [11]): 50 | Pigweed plant response rating (redroot pigweed; [12]): 10 | Plant response rating, Pigweed (redroot pigweed; Preemergence, 500 g ai/ha): 100 | Crabgrass, Large plant response rating (crabgrass; [4]): 100 | Crabgrass, Large plant response rating (crabgrass; [5]): 100 | Plant response rating, Crabgrass, Large (crabgrass; Preemergence): 100 | Crabgrass, Large plant response rating (crabgrass; [6]): 100 | Plant response rating, Wheat (wheat [3]; Postemergence, 125 g ai/ha): 0 | Wheat plant response rating (wheat [3]; [11]): 50 | Wheat plant response rating (wheat [3]; [12]): 0 | Plant response rating, Wheat (wheat [3]; Preemergence, 500 g ai/ha): 60 | Nightshade plant response rating (eastern black nightshade; [4]): 100 | Nightshade plant response rating (eastern black nightshade; [5]): 100 | Plant response rating, Nightshade (eastern black nightshade; Preemergence): 80 | Plant response rating, Foxtail, Giant (giant foxtail; Postemergence, 125 g ai/ha): 70 | Foxtail, Giant plant response rating (giant foxtail; [11]): 80 | Foxtail, Giant plant response rating (giant foxtail; [12]): 90 | Plant response rating, Foxtail, Giant (giant foxtail; Preemergence, 500 g ai/ha): 100 | Plant response rating, Corn (corn; Postemergence, 125 g ai/ha): 0 | Corn plant response rating (corn; [11]): 0 | Corn plant response rating (corn; [12]): 0 | Plant response rating, Corn (corn; Preemergence, 500 g ai/ha): 0
